Converted amounts (≈) assume the structure as drawn.
How the values were obtained:
Assay in all cases: in vitro antibacterial activity (MIC), agar dilution
Format in all cases: cell-based
[1] = tested on: Streptococcus Pneumonia 5649; settings: organism code ZZA; BHI agar, 35-37° C., 20 to 24 hours; unit assumed
In short: (§1)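 Antibacterial MIC determined by agar dilution in BHI agar with twelve successive concentrations; controls comprised compound-free plates and a same-class reference antibiotic. MIC: lowest concentration giving no growth, slight haze or sparsely isolated colonies.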

[2] = tested on: Streptococcus Pneumonia GYR 1171; settings: organism code YY; BHI agar, 35-37° C., 20 to 24 hours; unit assumed
In short: as §1

[3] = tested on: Staphylococcus aureus ATCC 6538P; settings: organism code AA; BHI agar, 35-37° C., 20 to 24 hours; unit assumed
In short: as §1

[4] = tested on: Enterococcus faecium ATCC 8043; settings: organism code II; BHI agar, 35-37° C., 20 to 24 hours; unit assumed
In short: as §1

[5] = tested on: Mycobacterium smegmatis ATCC 114; settings: organism code UU; BHI agar, 35-37° C., 20 to 24 hours; unit assumed
In short: as §1

[6] = tested on: Escherichia coli JUHL; settings: organism code QQ; BHI agar, 35-37° C., 20 to 24 hours; unit assumed
In short: as §1

[7] = tested on: Micrococcus luteus ATCC 4698; settings: organism code PP; BHI agar, 35-37° C., 20 to 24 hours; unit assumed
In short: (§2)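 BHI agar incorporation method; twelve compound concentrations. Streptococcus and other slow growers inoculated at 1:10, other strains at 1:100. Visual MIC read-out versus growth control.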

[8] = tested on: Staphylococcus aureus 1775; settings: organism code GG; BHI agar, 35-37° C., 20 to 24 hours; unit assumed
In short: as §1

[9] = tested on: Streptococcus pyogenes 930; settings: organism code MM; BHI agar, 35-37° C., 20 to 24 hours; unit assumed
In short: as §1

[10] = tested on: Streptococcus Pneumonia ATCC6303; settings: organism code XX; BHI agar, 35-37° C., 20 to 24 hours; unit assumed
In short: as §1

[11] = tested on: Streptococcus bovis A-5169; settings: organism code JJ; BHI agar, 35-37° C., 20 to 24 hours; unit assumed
In short: as §1

[12] = tested on: Candida albicans CCH 442; settings: organism code TT; BHI agar, 35-37° C., 20 to 24 hours; unit assumed
In short: as §1

[13] = tested on: Nocardia Asteroides ATCC9970; settings: organism code VV; BHI agar, 35-37° C., 20 to 24 hours; unit assumed
In short: as §1

[14] = tested on: Staphylococcus epidermidis 3519; settings: organism code HH; BHI agar, 35-37° C., 20 to 24 hours; unit assumed
In short: as §1

[15] = tested on: Micrococcus luteus ATCC 9341; settings: organism code OO; BHI agar, 35-37° C., 20 to 24 hours; unit assumed
In short: as §2

[16] = tested on: Haemophilis Influenzae DILL AMP R; settings: organism code WW; BHI agar, 35-37° C., 20 to 24 hours; unit assumed
In short: as §1

[17] = tested on: Escherichia coli DC-2; settings: organism code SS; BHI agar, 35-37° C., 20 to 24 hours; unit assumed
In short: as §1

[18] = tested on: Streptococcus Pneumonia 5979; settings: organism code ZZ; BHI agar, 35-37° C., 20 to 24 hours; unit assumed
In short: as §1

[19] = tested on: Staphylococcus aureus A5177; settings: organism code BB; BHI agar, 35-37° C., 20 to 24 hours; unit assumed
In short: as §1

[20] = tested on: Streptococcus pyogenes EES61; settings: organism code LL; BHI agar, 35-37° C., 20 to 24 hours; unit assumed
In short: as §1

[21] = tested on: Streptococcus agalactiae CMX 508; settings: organism code KK; BHI agar, 35-37° C., 20 to 24 hours; unit assumed
In short: as §1

[22] = tested on: Staphylococcus aureus NCTC10649M; settings: organism code EE; BHI agar, 35-37° C., 20 to 24 hours; unit assumed
In short: as §1

[23] = tested on: Escherichia coli SS; settings: organism code RR; BHI agar, 35-37° C., 20 to 24 hours; unit assumed
In short: as §1

[24] = tested on: Streptococcus pyogenes PIU 2548; settings: organism code NN; BHI agar, 35-37° C., 20 to 24 hours; unit assumed
In short: as §1

[25] = tested on: Staphylococcus aureus CMX 553; settings: organism code FF; BHI agar, 35-37° C., 20 to 24 hours; unit assumed
In short: as §1

[26] = tested on: Staphylococcus aureus CMX 642A; settings: organism code DD; BHI agar, 35-37° C., 20 to 24 hours; unit assumed
In short: as §1

[27] = tested on: Staphylococcus aureus A-5278; settings: organism code CC; BHI agar, 35-37° C., 20 to 24 hours; unit assumed
In short: as §1

Compound	MIC [1]	MIC [2]	MIC [3]	MIC [4]	MIC [5]	MIC [6]	MIC [7]	MIC [8]	MIC [9]	MIC [10]	MIC [11]	MIC [12]	MIC [13]	MIC [14]	MIC [15]	MIC [16]	MIC [17]	MIC [18]	MIC [19]	MIC [20]	also measured
CC[C@H]1OC(=O)[C@H](C)C(=O)[C@H](C)[C@@H](O[C@@H]2O[C@H](C)C[C@H](N(C)C)[C@H]2O)[C@](C)(OC/C=C/c2ccc(-c3cnc(N)s3)s2)C[C@@H](C)C(=O)[C@H](C)[C@H]2NC(=O)O[C@@]21C [Example 53]	1 µg/mL (≈ 1.22 µM)	0.03 µg/mL (≈ 0.0366 µM)	0.1 µg/mL (≈ 0.122 µM)	0.05 µg/mL (≈ 0.061 µM)	3.1 µg/mL (≈ 3.78 µM)	50 µg/mL (≈ 61 µM)	0.1 µg/mL (≈ 0.122 µM)	> 100 µg/mL	12.5 µg/mL (≈ 15.3 µM)	0.03 µg/mL (≈ 0.0366 µM)	0.01 µg/mL (≈ 0.0122 µM)	> 100 µg/mL	0.1 µg/mL (≈ 0.122 µM)	0.1 µg/mL (≈ 0.122 µM)	0.01 µg/mL (≈ 0.0122 µM)	8 µg/mL (≈ 9.77 µM)	25 µg/mL (≈ 30.5 µM)	16 µg/mL (≈ 19.5 µM)	0.1 µg/mL (≈ 0.122 µM)	≤ 0.005 µg/mL	MIC [21]: 0.01 µg/mL (≈ 0.0122 µM); MIC [22]: 0.1 µg/mL (≈ 0.122 µM); MIC [23]: 0.2 µg/mL (≈ 0.244 µM); MIC [24]: 0.1 µg/mL (≈ 0.122 µM); MIC [25]: 0.1 µg/mL (≈ 0.122 µM); MIC [26]: 0.1 µg/mL (≈ 0.122 µM); MIC [27]: > 100 µg/mL
CC[C@H]1OC(=O)[C@H](C)C(=O)[C@H](C)[C@@H](O[C@@H]2O[C@H](C)C[C@H](N(C)C)[C@H]2O)[C@](C)(OCC#Cc2ccc(-c3cc4ccccc4s3)s2)C[C@@H](C)C(=O)[C@H](C)[C@H]2NC(=O)O[C@@]21C [Example 34]	2 µg/mL (≈ 2.35 µM)	0.25 µg/mL (≈ 0.294 µM)	0.39 µg/mL (≈ 0.458 µM)	0.2 µg/mL (≈ 0.235 µM)	0.39 µg/mL (≈ 0.458 µM)	> 100 µg/mL	0.2 µg/mL (≈ 0.235 µM)	12.5 µg/mL (≈ 14.7 µM)	1.56 µg/mL (≈ 1.83 µM)	0.25 µg/mL (≈ 0.294 µM)	0.02 µg/mL (≈ 0.0235 µM)	> 100 µg/mL	0.39 µg/mL (≈ 0.458 µM)	0.39 µg/mL (≈ 0.458 µM)	0.02 µg/mL (≈ 0.0235 µM)	16 µg/mL (≈ 18.8 µM)	> 100 µg/mL	8 µg/mL (≈ 9.4 µM)	0.2 µg/mL (≈ 0.235 µM)	0.02 µg/mL (≈ 0.0235 µM)	MIC [21]: 0.02 µg/mL (≈ 0.0235 µM); MIC [22]: 0.2 µg/mL (≈ 0.235 µM); MIC [23]: 1.56 µg/mL (≈ 1.83 µM); MIC [24]: 0.39 µg/mL (≈ 0.458 µM); MIC [25]: 0.2 µg/mL (≈ 0.235 µM); MIC [26]: 0.39 µg/mL (≈ 0.458 µM); MIC [27]: 50 µg/mL (≈ 58.7 µM)
CC[C@H]1OC(=O)[C@H](C)C(=O)[C@H](C)[C@@H](O[C@@H]2O[C@H](C)C[C@H](N(C)C)[C@H]2O)[C@](C)(OCC#Cc2ccc(-c3nccn3C)s2)C[C@@H](C)C(=O)[C@H](C)[C@H]2NC(=O)O[C@@]21C [Example 32]	0.25 µg/mL (≈ 0.313 µM)	0.03 µg/mL (≈ 0.0375 µM)	0.05 µg/mL (≈ 0.0626 µM)	0.02 µg/mL (≈ 0.025 µM)	1.56 µg/mL (≈ 1.95 µM)	50 µg/mL (≈ 62.6 µM)	0.05 µg/mL (≈ 0.0626 µM)	> 100 µg/mL	12.5 µg/mL (≈ 15.6 µM)	0.03 µg/mL (≈ 0.0375 µM)	≤ 0.005 µg/mL	> 100 µg/mL	0.01 µg/mL (≈ 0.0125 µM)	0.1 µg/mL (≈ 0.125 µM)	0.01 µg/mL (≈ 0.0125 µM)	2 µg/mL (≈ 2.5 µM)	> 100 µg/mL	0.25 µg/mL (≈ 0.313 µM)	0.05 µg/mL (≈ 0.0626 µM)	0.01 µg/mL (≈ 0.0125 µM)	MIC [21]: 0.01 µg/mL (≈ 0.0125 µM); MIC [22]: 0.1 µg/mL (≈ 0.125 µM); MIC [23]: 0.2 µg/mL (≈ 0.25 µM); MIC [24]: 0.39 µg/mL (≈ 0.488 µM); MIC [25]: 0.05 µg/mL (≈ 0.0626 µM); MIC [26]: 0.05 µg/mL (≈ 0.0626 µM); MIC [27]: > 100 µg/mL

Reference: US6054435A, “6-O-substituted macrolides having antibacterial activity” (priority 1999, dated 2000)
